Earlier results in the PKSmart pharmacokinetics tables (Seal et al. 2025).

Assays:
[1] = Lombardo, Berellini, Obach 2018, Drug Metab Dispos 46:1466, doi 10.1124/dmd.118.082966; details: human; for MRT / Vd / clearance / half-life: in vivo, iv; for fraction unbound: plasma
[2] = Lombardo et al. 2013, J Clin Pharmacol 53:178, doi 10.1177/0091270012440282; details: for Vd / clearance: in vivo, iv; for fraction unbound: plasma

Row | Structure (SMILES) | MRT [1] [h] | Vd [1] [L/kg] | clearance [1] [mL/min/kg] | half-life [1] [h] | Vd ([2]; dog) [L/kg] | clearance ([2]; dog) [mL/min/kg] | fraction unbound ([2]; dog) | Vd ([2]; rat) [L/kg] | clearance ([2]; rat) [mL/min/kg] | fraction unbound ([2]; rat) | Vd ([2]; monkey) [L/kg] | clearance ([2]; monkey) [mL/min/kg] | fraction unbound [1] | fraction unbound ([2]; monkey)
1 | N[C@@H](CC(=O)N1CCn2c(nnc2C(F)(F)F)C1)Cc1cc(F)c(F)cc1F | 7.8 | 2.8 | 6 | 12 | 3.3 | 9.1 | 0.556 | 8.1 | 45 | 0.68 | – | – | – | –
2 | Nc1ncnc2c1ncn2CCOCP(=O)(O)O | 1.9 | 0.42 | 3.7 | 1.6 | 1.3 | 5.3 | – | 1.6 | 22 | – | 0.81 | 16 | – | –
3 | CC(=O)CCCCn1c(=O)c2c(ncn2C)n(C)c1=O | 0.77 | 1.8 | 39 | 1.2 | 1.01 | 37 | 0.425 | 0.1 | 7.28 | 0.76 | – | – | 0.51 | –
4 | CCCN(CCC)S(=O)(=O)c1ccc(C(=O)O)cc1 | 8.7 | 0.13 | 0.25 | 5.9 | 0.46 | 0.34 | 0.15 | – | – | – | – | – | – | –
5 | NC1(C(=O)O)CC1 | 7.8 | 0.73 | 1.5 | 5.9 | 0.7 | 0.4 | – | 0.64 | 3.2 | – | 0.72 | 3.1 | – | –
6 | C[C@@H]1CN(c2c(F)c(N)c3c(=O)c(C(=O)O)cn(C4CC4)c3c2F)C[C@H](C)N1 | 24 | 3.9 | 2.7 | 20 | – | – | – | 3.5 | 19.6 | 0.5 | – | – | – | –
7 | COC(=O)C(c1ccccc1)C1CCCCN1 (stereo not drawn) | 4.5 | 2.2 | 9.42 | 4.8 | – | – | – | 3 | 53 | – | – | – | 0.85 | –
8 | NC(=O)c1ncn([C@@H]2O[C@H](CO)[C@@H](O)[C@H]2O)n1 | 45 | – | 5.2 | 45 | – | – | – | – | 43 | – | – | 3.7 | – | 0.497
9 | CON=C(C(=O)NC1C(=O)N2C(C(=O)O)=C(CSc3nc(C)c(CC(=O)O)s3)CS[C@H]12)c1csc(N)n1 (stereo partly drawn) | 1.5 | 0.054 | 0.61 | 4.2 | 0.26 | 4.1 | 0.243 | 0.18 | 1.1 | 0.0097 | 0.15 | 1.2 | 0.18 | 1
10 | Nc1nc(NC2CC2)c2ncn([C@H]3C=C[C@@H](CO)C3)c2n1 | 1.1 | 0.84 | 13 | 1 | – | – | – | – | 30 | – | – | – | 0.5 | –
11 | CC(c1ncncc1F)[C@](O)(Cn1cncn1)c1ccc(F)cc1F (stereo partly drawn) | 4.4 | 2.2 | – | 5.6 | 0.88 | – | 0.49 | 1.78 | – | 0.44 | – | – | 0.42 | –
12 | Nc1ccn([C@@H]2O[C@H](CO)[C@@H](O)[C@@H]2O)c(=O)n1 | 0.28 | 0.67 | 41.7 | 0.17 | 0.86 | 11.3 | – | – | – | – | – | – | – | –
13 | Cc1nnc2n1-c1sc(Br)cc1C(c1ccccc1Cl)=NC2 | 6 | 0.75 | 2 | 4.8 | 6.1 | 11 | – | 3 | 23 | 0.22 | 6.5 | 13 | 0.092 | –
14 | CO[C@]12CC[C@@]3(C[C@@H]1[C@](C)(O)C(C)(C)C)[C@H]1Cc4ccc(O)c5c4[C@@]3(CCN1CC1CC1)[C@H]2O5 | – | – | – | 3.2 | – | – | – | 8.37 | 0.05 | – | – | – | – | –
15 | Cc1cccc(C)c1NC(=O)NCCCNC(C)C | 5.2 | 1.4 | 4.5 | 5 | 1.2 | 13 | 0.7 | 3.2 | 82 | 0.88 | 3 | 26.7 | 0.86 | 0.69
16 | O=C(NCC1CCCCN1)c1cc(OCC(F)(F)F)ccc1OCC(F)(F)F (stereo not drawn) | 21 | 6.1 | – | 12 | 1.1 | – | 0.3 | 6.9 | – | – | – | – | – | –
17 | CCC(CC)O[C@@H]1C=C(C(=O)O)C[C@H](N)[C@H]1NC(C)=O | 1.3 | 0.37 | 4.8 | 1.8 | 0.56 | 5.3 | 0.304 | 1.3 | 25 | – | – | – | – | –
18 | COc1ccc(Cc2nccc3cc(OC)c(OC)cc23)cc1OC | 1.4 | 1 | 11 | 1.8 | 3.01 | 21.8 | 0.1 | – | – | 0.09 | – | – | – | –
19 | O=[N+]([O-])O[C@@H]1CO[C@H]2[C@@H]1OC[C@@H]2O | 5.8 | 0.7 | 2 | 4.1 | 0.82 | 6.9 | – | – | 2.5 | – | – | – | – | –
20 | CC(C)(C)NC(=O)C1CN(Cc2cccnc2)CCN1C[C@@H](O)CC(Cc1ccccc1)C(=O)N[C@H]1c2ccccc2C[C@H]1O (stereo partly drawn) | 0.76 | 0.82 | – | 1 | 0.73 | 15 | – | 2.2 | 89 | – | 1.45 | 35.7 | – | –
21 | CCC(C)C(=O)O[C@H]1C[C@H](O)C=C2C=C[C@H](C)[C@H](CC[C@@H](O)C[C@@H](O)CC(=O)O)[C@H]21 (stereo partly drawn) | – | 0.46 | 14 | 0.78 | – | – | – | 0.19 | 36 | 0.33 | – | – | – | –
22 | CC1(C)S[C@@H]2C(NC(=O)C(C(=O)O)c3ccsc3)C(=O)N2C1C(=O)O (stereo partly drawn) | 1.5 | 0.16 | 1.8 | 1 | 0.28 | 4.3 | – | – | – | – | – | – | 0.55 | –
23 | OCCN1CCN(CCCN2c3ccccc3Sc3ccc(C(F)(F)F)cc32)CC1 | 5 | 2.9 | 9.7 | 12.3 | 5.5 | 15.4 | – | – | – | – | – | – | 0.04 | –
24 | C[C@]12C=CC(=O)C=C1CC[C@@H]1C2C(=O)C[C@@]2(C)[C@H]1CC[C@]2(O)C(=O)CO (stereo partly drawn) | 3.8 | 0.57 | – | 2.9 | 2.3 | 24.9 | 0.5 | 1.3 | 155 | 0.41 | 1.7 | 9.8 | – | 0.261
25 | C[C@@H](O)C1C(=O)N2C(C(=O)O)=C(SCCOC(N)=O)S[C@H]12 (stereo partly drawn) | 0.67 | 0.3 | – | 0.8 | 0.24 | – | – | 0.14 | – | – | 0.21 | – | 0.35 | –
26 | CC(C)c1cccc(C(C)C)c1O | 2.2 | 4.7 | 36 | 3.2 | 2.46 | 39.8 | 0.02 | 1.37 | 107 | 0.03 | – | – | 0.016 | –
27 | COCC(=O)O[C@]1(CCN(C)CCCc2nc3ccccc3[nH]2)CCc2cc(F)ccc2[C@@H]1C(C)C | 13 | 3.1 | 4 | 13 | 9.7 | 18.4 | – | – | 94 | – | – | – | 0.005 | –
